Data on twelve compounds can be found in PubChem BioAssay (NCI).

Common to all, as to experiment: NCI-60 cell line screen, 48 h
In test [1] the test system is A549 NSCLC.
The subject of test [2] is CAKI-1 renal.
The test system of test [3] is COLO 205 colon.
In test [4] the test system is M14 melanoma.
Test [5] relates to MCF7 breast.
The subject of test [6] is SK-OV-3 ovarian.
Test [7] has as its system U251 CNS.
Test [8] concerns UACC-62 melanoma.

Molecules are shown by their SMILES. “And” between values parts separate entries of the source, which are not always exact repeats. Equal values may be shown once.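 Test compounds were applied to cells in 96-well plates for 48 hours at 5 doses. GI50 marks 50% less growth. The concentration for full growth arrest is given as TGI.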 Where only a bound is given, the exact number is not on record here.

As to `C/C(O)=C(/C=N/C(=S)Nc1ccc(S(N)(=O)=O)cc1)C(=O)Nc1ccccc1C`, the TGI in test [1], in test [2], in test [3], in test [4], in test [5] and in test [6] was over 100 µM each time. Further, the TGI in test [7] and in test [8] was over 100 µM each time.
Turning to `Cc1cc(NCCCN(C)C)c2ccc3c(ccc4c(NCCCN(C)C)cc(C)nc43)c2n1`, the GI50 in test [1] was 0.0643 µM; in test [2] it was 0.217 µM; in test [3], 0.183 µM; in test [4] it was 0.194 µM; in test [5], 0.0635 µM; in test [6] it was 0.23 µM. Also, the figures for the GI50 in test [7] and in test [8] were 0.199 µM and 0.283 µM, respectively. In addition, the TGI was found to be 0.411 µM in test [1]; 0.673 µM in test [2]; 0.408 µM in test [3]; 0.397 µM in test [4]; 0.302 µM in test [5]; 0.507 µM in test [6]. Moreover, the TGI is 0.541 µM in test [7] and 0.93 µM in test [8].
In the case of `O=C1NNC2(C(=O)N1)c1ccccc1-c1ccccc12`, the TGI in test [1], in test [2], in test [3], in test [4], in test [5] and in test [6] was over 10 µM in each case. Also, in test [8], the TGI was over 10 µM.
For `O=C(Nc1ccc(Br)cc1F)c1cc(I)ccc1O`, the GI50 in test [1] is 3.17 µM; in test [2] it was 1.83 µM; in test [3], 12.8 µM; in test [4] it was 2.88 µM; in test [5] it was 1.97 µM; in test [6] it was 2.13 µM. Moreover, the GI50 was 2.67 µM in test [7] and 1.37 µM in test [8]. Besides, the TGI in test [1] is over 100 µM; in test [2], 6.51 µM; in test [3], 30.8 µM; in test [4], 13.1 µM; in test [5], over 100 µM; in test [6], 7.95 µM. Further, the TGI in test [7] is over 100 µM; in test [8], 4.43 µM.
Regarding `Cc1c(Cl)cccc1C(=O)Nc1nc2c(s1)CN(C(=O)c1ccc(C(F)(F)F)cc1)CC2`, the GI50 in test [1] is 0.124 µM; in test [2] it was 0.0711 µM; in test [3], 0.164 µM; in test [4], 0.0483 µM; in test [5], 0.0281 µM; in test [6] it was 0.227 µM. In addition, the GI50 in test [7] was 0.145 µM; in test [8], 0.13 µM. Moreover, the TGI in test [1] is over 50 µM; in test [2], over 50 µM; in test [3], 0.762 µM; in test [4] it was 38.4 µM; in test [5], over 37.7 µM; in test [6], over 50 µM. The results for the TGI in test [7] and in test [8] were over 35.6 µM and over 50 µM, respectively.
Consider `CC(=O)N1CC(C)(C)c2c(C)c(O)c(C)c(C)c21`, for which the TGI in test [1], in test [3], in test [4], in test [5], in test [6] and in test [7] was over 100 µM throughout. Further, the TGI in test [8] was over 100 µM.
On to `O=C1C(Nc2ccc(Cl)cc2)=C(I)C(=O)c2ncccc21`, for which the GI50 in test [1] is 2.75 µM; in test [2], 0.327 µM; in test [3], 1.32 µM; in test [4], 0.828 µM; in test [5] it was 0.289 µM; in test [6], 4.28 µM. Moreover, the GI50 was 1.48 µM in test [7] and 1.33 µM in test [8]. In addition, the TGI in test [1] turned out to be 9.48 µM; in test [2], 1.54 µM; in test [3] it was 2.79 µM; in test [4], 2.26 µM; in test [5] it was 1.16 µM; in test [6], 18 µM. Also, the TGI in test [7] turned out to be 2.8 µM; in test [8], 3.12 µM.
In the case of `CC1CCC/C1=C(/I)C(=O)c1ccccc1` (configuration not stated), the TGI in test [1] was over 100 µM; in test [2] it was 69.5 µM; in test [3] it was over 100 µM; in test [4], over 100 µM; in test [6], over 100 µM; in test [7], over 100 µM. Also, the TGI in test [8] was over 100 µM.
Consider `O=C1Nc2ccc(Br)cc2C1=Nc1cccnc1`, for which the TGI in test [1] was over 100 µM; in test [2], over 100 µM; in test [3], over 100 µM; in test [4], 31.5 µM; in test [5] it was 59.3 µM; in test [6], over 100 µM. The TGI in test [7] worked out at 24.8 µM; in test [8], 35 µM.
Take `Cc1cccc(/C=N/NC(=S)N2CCCC2)n1`: the GI50 in test [1] is 2.5 µM; in test [2], 3.24 µM; in test [3], 0.193 µM; in test [4] it was 0.392 µM; in test [5], 0.169 µM; in test [7], 0.821 µM. Further, the GI50 in test [8] was 0.587 µM. The TGI was over 100 µM in test [1]; 1.16 µM in test [2]; 2.64 µM and 0.485 µM in test [4]; over 100 µM in test [6]; over 100 µM in test [7]; 2.8 µM and 1 µM in test [8].
On to `Cc1ccccc1OCC(O)CN1CCN(c2ccc(Cl)cc2)CC1` (configuration not stated), for which the GI50 in test [1] is 30.2 µM; in test [2], 12.5 µM; in test [3] it was 15.7 µM; in test [4] it was 17 µM; in test [5], 16.9 µM; in test [6], 21.2 µM. Besides, the GI50 was 18.7 µM in test [7] and 13.8 µM in test [8]. In addition, the TGI in test [1] stood at 84 µM; in test [2] it was 26.6 µM; in test [3], 30.3 µM; in test [4] it was 34.6 µM; in test [5], 31.5 µM; in test [6], 53.8 µM. Besides, the TGI came out at 33.7 µM in test [7] and 27.5 µM in test [8].
For `COc1cc2c(cc1OC)[C@H](C)N1CCc3cc(OC)c(OC)cc3[C@@H]1C2`, the TGI in test [1], in test [2], in test [3], in test [5], in test [6] and in test [7] was over 100 µM throughout. Further, the TGI in test [8] was over 100 µM.
